Test results published in BindingDB's records for patent US10479784 (VERTEX PHARMACEUTICALS INCORPORATED, 2019).

Molecular target: Serine/threonine-protein kinase ATR (Homo sapiens, UniProt Q13535)
Test: Inhibition Assay
Description: Compounds were screened for their ability to inhibit ATR kinase using a radioactive-phosphate incorporation assay. Assays were carried out in a mixture of 50 mM Tris/HCl (pH 7.5), 10 mM MgCl2 and 1 mM DTT. Final substrate concentrations were […] (3mCi 33P ATP/mmol ATP, Perkin Elmer) and 800 μM target peptide ([…]).Assays were carried out at 25° C. in the presence of 5 nM full-length ATR. An assay stock buffer solution was prepared containing all of the reagents listed above, with the exception of ATP and the test compound of interest. […] The plate was pre-incubated for 10 minutes at 25° C. and the reaction initiated by addition of 15 μL [γ-33P]ATP (final concentration 10 μM).The reaction was stopped after […] by the addition of 30 μL 0.1M phosphoric acid containing 2 mM ATP. A multiscreen phosphocellulose filter 96-well plate (Millipore, Cat no. MAPHN0B50) was pretreated with 100 μL 0.2M phosphoric acid prior to the addition of 45 μL of the stopped assay mixture.

Chain of Serine/threonine-protein kinase ATR (Q13535 whole entry): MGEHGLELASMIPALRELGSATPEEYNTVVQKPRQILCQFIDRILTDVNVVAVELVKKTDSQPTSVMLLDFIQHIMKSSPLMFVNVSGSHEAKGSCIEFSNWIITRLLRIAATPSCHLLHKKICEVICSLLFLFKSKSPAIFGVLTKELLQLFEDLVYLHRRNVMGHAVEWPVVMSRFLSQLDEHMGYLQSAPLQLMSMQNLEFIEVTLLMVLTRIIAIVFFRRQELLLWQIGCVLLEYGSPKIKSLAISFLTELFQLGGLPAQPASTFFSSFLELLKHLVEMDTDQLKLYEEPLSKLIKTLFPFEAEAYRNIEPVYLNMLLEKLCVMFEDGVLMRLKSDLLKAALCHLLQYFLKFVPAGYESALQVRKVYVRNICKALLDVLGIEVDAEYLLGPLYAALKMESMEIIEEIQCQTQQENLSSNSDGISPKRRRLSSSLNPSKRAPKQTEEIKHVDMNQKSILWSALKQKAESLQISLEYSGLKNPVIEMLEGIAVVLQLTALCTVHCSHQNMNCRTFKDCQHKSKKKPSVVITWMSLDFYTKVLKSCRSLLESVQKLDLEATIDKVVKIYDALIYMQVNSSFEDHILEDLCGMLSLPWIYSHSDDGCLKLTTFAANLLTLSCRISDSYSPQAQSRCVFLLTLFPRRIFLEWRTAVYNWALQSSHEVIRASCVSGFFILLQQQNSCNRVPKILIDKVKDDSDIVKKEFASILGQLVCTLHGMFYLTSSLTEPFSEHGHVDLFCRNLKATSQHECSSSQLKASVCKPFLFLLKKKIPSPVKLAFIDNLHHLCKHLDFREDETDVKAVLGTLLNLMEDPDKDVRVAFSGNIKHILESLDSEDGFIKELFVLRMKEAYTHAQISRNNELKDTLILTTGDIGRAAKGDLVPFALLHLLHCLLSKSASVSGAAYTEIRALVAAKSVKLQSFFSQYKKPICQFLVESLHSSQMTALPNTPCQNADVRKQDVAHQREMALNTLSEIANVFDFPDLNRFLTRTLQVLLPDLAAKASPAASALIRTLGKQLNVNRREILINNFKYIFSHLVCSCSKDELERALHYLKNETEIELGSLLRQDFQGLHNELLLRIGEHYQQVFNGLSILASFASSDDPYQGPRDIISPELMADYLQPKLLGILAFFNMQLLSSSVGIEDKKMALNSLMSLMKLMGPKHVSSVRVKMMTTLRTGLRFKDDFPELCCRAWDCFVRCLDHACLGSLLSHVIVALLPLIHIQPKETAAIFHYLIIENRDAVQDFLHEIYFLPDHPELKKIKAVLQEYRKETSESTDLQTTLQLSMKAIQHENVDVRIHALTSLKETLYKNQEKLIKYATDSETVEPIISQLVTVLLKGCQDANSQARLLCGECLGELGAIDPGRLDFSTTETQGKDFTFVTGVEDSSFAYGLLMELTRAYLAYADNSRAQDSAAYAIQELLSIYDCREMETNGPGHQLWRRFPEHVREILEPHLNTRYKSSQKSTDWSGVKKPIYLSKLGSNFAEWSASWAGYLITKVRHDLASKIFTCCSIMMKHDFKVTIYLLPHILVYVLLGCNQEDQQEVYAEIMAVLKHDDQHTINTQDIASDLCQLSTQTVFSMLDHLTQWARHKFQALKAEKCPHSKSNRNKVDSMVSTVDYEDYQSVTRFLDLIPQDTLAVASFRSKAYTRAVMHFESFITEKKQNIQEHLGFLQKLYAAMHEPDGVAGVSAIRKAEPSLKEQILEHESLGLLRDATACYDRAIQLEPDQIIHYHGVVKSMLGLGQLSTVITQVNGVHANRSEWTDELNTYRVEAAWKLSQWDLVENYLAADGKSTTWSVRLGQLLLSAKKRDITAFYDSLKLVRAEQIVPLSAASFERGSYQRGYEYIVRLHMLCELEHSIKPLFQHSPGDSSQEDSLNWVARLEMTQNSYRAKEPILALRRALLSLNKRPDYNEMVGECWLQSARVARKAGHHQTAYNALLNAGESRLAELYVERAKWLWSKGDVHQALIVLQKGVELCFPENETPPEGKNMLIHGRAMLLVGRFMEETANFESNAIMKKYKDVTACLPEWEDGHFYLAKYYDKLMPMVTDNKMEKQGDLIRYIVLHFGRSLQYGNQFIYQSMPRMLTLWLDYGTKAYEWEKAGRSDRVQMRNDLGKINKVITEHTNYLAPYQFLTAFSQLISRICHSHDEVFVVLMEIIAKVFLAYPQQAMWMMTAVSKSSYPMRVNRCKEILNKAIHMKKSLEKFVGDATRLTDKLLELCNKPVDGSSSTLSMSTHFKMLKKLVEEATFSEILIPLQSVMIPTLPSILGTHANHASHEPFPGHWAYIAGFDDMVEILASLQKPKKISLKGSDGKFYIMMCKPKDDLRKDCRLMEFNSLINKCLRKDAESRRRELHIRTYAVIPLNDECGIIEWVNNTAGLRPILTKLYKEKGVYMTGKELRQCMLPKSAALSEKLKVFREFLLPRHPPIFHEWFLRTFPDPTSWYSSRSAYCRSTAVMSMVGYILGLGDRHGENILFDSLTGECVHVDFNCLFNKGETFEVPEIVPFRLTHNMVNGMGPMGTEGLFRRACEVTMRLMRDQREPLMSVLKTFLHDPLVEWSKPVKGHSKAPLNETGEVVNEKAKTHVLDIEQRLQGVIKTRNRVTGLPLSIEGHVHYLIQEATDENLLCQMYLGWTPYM

For CNCc1ccc(C(=N)OC(=N)c2nc(-c3ccc(S(=O)(=O)C(C)C)c(OC(F)(F)F)c3)cnc2N)cc1 [US10479784, Compound IA-290], which Ki is on record?
The Ki was less than 10 nM.

Which Ki does the source give for CNCc1ccc(C(=N)OC(=N)c2nc(-c3ccc([S+]([O-])C(C)CCOC)cc3)cnc2N)c(F)c1 (configuration not stated) [US10479784, Compound IA-332] here?
The Ki was less than 10 nM.
